# Assay results: paper PMC12598851, “Exploiting Avidity Effects for the Discovery of Low Affinity Protein-Binding Fragments” (Journal of Medicinal Chemistry, 2025)
# Several values for one entry are separate records, joined by “and”; a condition that tells them apart may be missing. Identical values can stand only once. Entries after “also recorded” stand apart in the source; their conditions may differ.
# What was measured:
# [1] = target: T1, tetrameric streptavidin (SA-647) (Streptomyces avidinii, UniProt P22629); assay: Bead pull-down: SA-647 retained by compound-displaying TentaGel beads, plate reader; type: binding
# T1 construct: purchased ThermoFisher S3235
# Excerpt: Compounds 2 and 3 were then constructed on 10 μm TentaGel beads via straightforward solid-phase synthesis, along with acetylated beads, which as a “blank” (Figure c). TentaGel beads consist of an amino-polystyrene core onto which is grafted a thick layer of amine-terminated PEG chains. An additional mini-PEG spacer was incorporated prior to coupling the compounds to further improve spatial accessibility and aqueous display of the compounds (see Experimental Section for detailed synthesis). The beads were incubated with AlexaFluor 647-conjugated SA (SA-647) in phosphate-buffered saline supplemented with 0.05% Tween 20 (PBST) for 1 h at room temperature in the dark. Following incubation, the beads were washed thoroughly (see Experimental Section for a detailed protocol), then resuspended in PBST. The amount of fluorescent SA retained by the resin was analyzed using a Tecan multiwell plate reader equipped with appropriate excitation and emission filters (excitation at 650 nm, emission at 665 nm).
# (§1) General notes: • At each step, contents were mixed by pipetting up and down 3–5 times. • All steps following the addition of SA-647 were conducted in the dark. • SA-647 and mSA-647 were purchased from commercial sources; (SA-647: ThermoFisher cat#S3235, mSA-647: Millipore SAE178).
# A 96-well Multiscreen hydrophilic assay plate (MilliporeSigma, MSBVN12) was activated by treating each well with 150 μL of 70% (v/v) ethanol in water. The solvent was removed under vacuum, and the wells were washed with PBST (3 × 150 μL). Fresh PBST (150 μL) was then added to each well.
# The plate was drained and washed again with PBST (3 × 150 μL), followed by the addition of 150 μL PBST per well. Plates were shaken overnight at ambient temperature on an orbital plate shaker.
# The next day, wells were drained and incubated with 150 μL of a 1:1 (v/v) solution of PBST:PBS blocking buffer (Thermo Scientific, 37538) for 1 h at room temperature. After removal of the blocking buffer, 100 μL PBST was added to each well and mixed thoroughly. A 20 μL aliquot from each well was transferred to a black 384-well flat-bottom plate (Corning, 3820) for background (blank) measurements.
# The remaining PBST was removed, and the beads were incubated with SA-647 (500 nM in 1:1 PBST/blocking buffer, 150 μL per well) for 1 h at room temperature. After incubation, wells were washed with PBST while shaking (3 × 20 min). A final 150 μL PBST wash was performed and drained. Fresh PBST (80 μL) was added to each well, and the contents were transferred to labeled PCR tubes. Samples were briefly vortexed and mixed by pipetting.
# Each sample was transferred to a black 384-well plate in triplicate (3 × 20 μL per well). The plate was sealed with a foil sticker and centrifuged at 250g for 1 min. Fluorescence intensity was measured using a TECAN plate reader. Background fluorescence (from blank wells) was subtracted prior to further data analysis.
# [2] = target: T2, biotin-binding surface of SA (Streptomyces avidinii, UniProt P22629); assay: Competition assay with biotin on beads; details: SA-647 500 nM pretreated with biotin 10 μM, 30 min
# T2 construct: purchased ThermoFisher S3235
# Protocol: To determine if ligand 2 interacts with the biotin-binding surface of SA, we preincubated SA-647 with excess biotin and repeated the binding assay.
# This assay was conducted following the exact same procedure described above using two samples: SA-647 (500 nM) alone, and SA-647 (500 nM) that had been pretreated with biotin (10 μM) for 30 min at room temperature. Each sample was added to separate wells of a microtiter plate.
# [3] = target: T1, tetrameric streptavidin (SA-647); assay: Bead pull-down: SA-647 retained by compound-displaying TentaGel beads, plate reader; type: binding; details: SA-647 50 nM, about 14,000-fold below the intrinsic KD
# [4] = target: T3, glutathione S-transferase (GST) (Schistosoma japonicum, UniProt P08515); assay: Bead pull-down of compound 2 beads with GST as off-target control; type: binding; details: GST 1 μM, stained with labeled antibody
# T3 construct: His6 (C); made in house; host or cells: E. coli BL21 (DE3) codon plus RP
# [5] = tested on: monomeric streptavidin (mSA-647); assay: Bead pull-down with monomeric streptavidin; type: binding; details: mSA-647 500 nM, 1 h, PBST, room temperature
# Protocol: To investigate this, compound 2-displaying, compound 3-displaying, or blank (acetylated) beads were incubated with tetrameric SA-647 or iFluor647-conjugated monomeric streptavidin (mSA-647). Biotin-displaying beads (Figure S3) were also included in this experiment as a high-affinity comparator. […] No binding of either protein to compound 3-displaying beads was observed.
# 3 Stable binding of tetrameric SA to beads displaying compound 2 is highly dependent on avidity. […] Each compound was represented by 1 million 10 μm TentaGel beads, with 250,000 beads used per technical replicate. (b) Effect of ligand functionalization density on compound binding. Beads were functionalized with compound 2, compound 3, or biotin at varying surface densities (100% to 5%) and incubated with SA-647 (500 nM) for 1 h in PBST at room temperature as previously, before recording the fluorescence intensity.
# as §1
# SA-647 = target: T4, SA-647 (Streptomyces avidinii, UniProt P22629); assay: Dose-dependent binding of SA-647 to bead-displayed ligands by FACS (MFI); details: SA-647 0.1 to 1000 nM
# T4 construct: purchased ThermoFisher S3235
# Protocol: We next asked if the bead binding assay could distinguish complexes with different affinities for SA. 10 μm TentaGel beads displaying compound 2, compound 3, the oxazole analogue of compound 2 (Figure S4), or the SA-binding macrocycle 1 shown in Figure a were exposed to different concentrations of SA-647 ranging from 0.1 to 1000 nM. After washing, the intensity of fluorescence retained on the beads was measured using a flow cytometer, and the results were plotted as the mean fluorescence intensity (MFI) on the beads vs the protein concentration. […] Macrocycle 1, which binds SA with a K D of about 600 nM in solution (more than 1000 times more tightly than compound 2), binds SA-647 on resin at far lower concentrations than does compound 2.
compound,measurement,setting,value
CC(=O)N(Cc1cccnc1)Cc1nc(C(=O)N(C)CC(=O)NCCOCCOCC(=O)NCC(N)=O)cs1 [Compound 2],"Fluorescence intensity, Average","[1]; SA-647 500 nM, 12 replicates, after background subtraction, Z' calculation",14647
same,binding of SA-647 to bead-displayed compound (fluorescence),"[1]; SA-647 500 nM, 1 h, PBST, room temperature, after washing",readily detectable; also recorded: strong binding
same,"Fluorescence intensity, individual replicate","[1]; SA-647 500 nM, replicates 1-12, after background subtraction, Z' calculation",15421 and 12975 and 13104 and 12492 and 14298 and 14769 and 15364 and 16337 and 17794 and 14546 and 14869 and 13797
same,fluorescence after 24 h in buffer lacking protein compared with directly after washing,"[1]; beads washed, resuspended in PBST lacking protein for 24 h",almost identical
same,retained SA-647 at 30% ligand density,"[1]; compound linked to only 30% of the sites on the beads, SA-647 500 nM",almost undetectable above background
same,dependence of SA-647 retention on ligand density,"[1]; site functionalization 100% to 5%, SA-647 500 nM",strongly density-dependent
same,retention of SA-647 preincubated with excess biotin,[2],ablated retention
same,binding of SA-647 to bead-displayed compound at low protein concentration,[3],above background binding was readily detectable
same,binding of GST to bead-displayed compound,[4],No detectable signal
same,binding of mSA-647 to bead-displayed ligand,[5],did not retain detectable levels; also recorded: not observed
same,dose-dependent binding of SA-647 (MFI by flow cytometer),SA-647,dose-dependent binding
